In ChEMBL document CHEMBL1126455, “Syntheses of new metabolically stabilized TXA2/PGH2-receptor antagonists and their biological properties” (1992):

Legend:
[1] = molecular target: T1, Thromboxane A2 receptor (Homo sapiens) (UniProt P21731); experiment: Competition factor for Thromboxane A2 receptor/Prostaglandin H2 receptor was determined by CF=(ID50-test)/(ID50-standard)
T1 sequence (whole entry): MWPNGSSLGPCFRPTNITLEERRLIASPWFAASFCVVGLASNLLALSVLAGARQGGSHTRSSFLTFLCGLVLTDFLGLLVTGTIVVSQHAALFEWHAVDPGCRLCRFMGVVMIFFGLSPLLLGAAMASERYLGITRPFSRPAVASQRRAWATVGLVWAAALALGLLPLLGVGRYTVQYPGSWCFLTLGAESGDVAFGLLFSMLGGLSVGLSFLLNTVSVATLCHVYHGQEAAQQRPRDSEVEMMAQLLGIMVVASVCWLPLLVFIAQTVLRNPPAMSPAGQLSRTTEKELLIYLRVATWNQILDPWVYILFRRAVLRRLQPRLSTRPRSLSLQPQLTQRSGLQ

Homo sapiens = species: Homo sapiens; experiment: Potency of was determined relative to the SQ 29548 by inhibition of aggregation of human platelet rich plasma induced by 10*-6 M U 46619; assay type: functional

SMILES	CF [1]	Potency (Homo sapiens)
O=C(O)COCCCC[C@H]1[C@H](CNS(=O)(=O)c2ccc(F)cc2)C2CC1(c1ccc(F)cc1)CO2 (some centres not stated)	0.5	0.08
Cc1ccc(S(=O)(=O)N[C@@H]2C3CC(c4ccc(F)cc4)(CO3)[C@H]2C/C=C\COCC(=O)O)cc1 (some centres not stated)	170	0.003
Cc1ccc(S(=O)(=O)N[C@@H]2C3CC(c4ccc(F)cc4)(CO3)[C@H]2CCCCOCC(=O)O)cc1 (some centres not stated)	27	0.003
Cc1ccc(S(=O)(=O)NC[C@@H]2C3CC(c4ccc(F)cc4)(CO3)[C@H]2CCCCOCC(=O)O)cc1 (some centres not stated)	0.4	0.03
O=C(O)CCC/C=C\C[C@H]1[C@H](CNS(=O)(=O)c2ccc(Cl)cc2)C2CC1(c1ccc(F)cc1)CO2 (some centres not stated)	0.2	0.01
O=C(O)CCCCCC[C@H]1[C@H](CNS(=O)(=O)c2ccc(Cl)c(Cl)c2)C2CC1(c1ccc(-c3ccccc3)cc1)CO2 (some centres not stated)	12	0.01
O=C(O)COCCCC[C@H]1[C@H](CNS(=O)(=O)c2ccc(Cl)c(Cl)c2)C2CC1(c1ccc(F)cc1)CO2 (some centres not stated)	0.4	0.08
O=C(O)COCCCC[C@H]1[C@H](CNS(=O)(=O)c2ccc(Cl)c(Cl)c2)C2CC1(c1ccc(-c3ccccc3)cc1)CO2 (some centres not stated)	3	0.03
O=C(O)CCC/C=C\C[C@H]1[C@H](NS(=O)(=O)c2ccc(F)cc2)C2CC1(c1ccc(F)cc1)CO2 (some centres not stated)	120	0.0004
O=C(O)COCC=CC[C@H]1[C@H](NS(=O)(=O)c2ccc(F)cc2)C2CC1(c1ccc(F)cc1)CO2 (some centres not stated)	400	0.003
O=C(O)CCC/C=C\C[C@H]1[C@H](CNS(=O)(=O)c2ccc(Cl)c(Cl)c2)C2CC1(c1ccc(-c3ccccc3)cc1)CO2 (some centres not stated)	4.2	0.01
O=C(O)CCC/C=C\C[C@H]1[C@H](CNS(=O)(=O)c2ccc(Cl)c(Cl)c2)C2CC1(c1ccc(F)cc1)CO2 (some centres not stated)	0.5	0.01
Cc1ccc(S(=O)(=O)N[C@@H]2C3CC(c4ccc(F)cc4)(CO3)[C@H]2C/C=C\CCCC(=O)O)cc1 (some centres not stated)	45	0.001
O=C(O)COCCCC[C@H]1[C@H](CNS(=O)(=O)c2ccc(Cl)cc2)C2CC1(c1ccc(F)cc1)CO2 (some centres not stated)	0.1	0.08
Cc1ccc(S(=O)(=O)NC[C@@H]2C3CC(c4ccc(F)cc4)(CO3)[C@H]2C/C=C\CCCC(=O)O)cc1 (some centres not stated)	0.4	0.01
O=C(O)CCC/C=C\C[C@H]1[C@H](CNS(=O)(=O)c2ccc(F)cc2)C2CC1(c1ccc(F)cc1)CO2 (some centres not stated)	0.3	0.03
